Patent US7132547B2, “Preventives/remedies for urinary disturbance” (priority 2001, dated 2006)

Experiments:
[1] = molecular target: T1, human erythrocyte-derived acetylcholinesterase (Homo sapiens, UniProt P22303); assay: Measurement of acetylcholinesterase inhibitory activity (acetylthiocholine / Ellman method); assay type: biochemical; conditions: 50% inhibition concentration, repeated at least three times, read-out: AchE: IC50
T1 construct: Human erythrocyte-drived acetylcholinesterase (Sigma) was dissolved in distilled water; purchased Sigma; host or cells: human erythrocytes (natural source)
T1 sequence (P22303 32-617 isoform P22303-2 limits assumed): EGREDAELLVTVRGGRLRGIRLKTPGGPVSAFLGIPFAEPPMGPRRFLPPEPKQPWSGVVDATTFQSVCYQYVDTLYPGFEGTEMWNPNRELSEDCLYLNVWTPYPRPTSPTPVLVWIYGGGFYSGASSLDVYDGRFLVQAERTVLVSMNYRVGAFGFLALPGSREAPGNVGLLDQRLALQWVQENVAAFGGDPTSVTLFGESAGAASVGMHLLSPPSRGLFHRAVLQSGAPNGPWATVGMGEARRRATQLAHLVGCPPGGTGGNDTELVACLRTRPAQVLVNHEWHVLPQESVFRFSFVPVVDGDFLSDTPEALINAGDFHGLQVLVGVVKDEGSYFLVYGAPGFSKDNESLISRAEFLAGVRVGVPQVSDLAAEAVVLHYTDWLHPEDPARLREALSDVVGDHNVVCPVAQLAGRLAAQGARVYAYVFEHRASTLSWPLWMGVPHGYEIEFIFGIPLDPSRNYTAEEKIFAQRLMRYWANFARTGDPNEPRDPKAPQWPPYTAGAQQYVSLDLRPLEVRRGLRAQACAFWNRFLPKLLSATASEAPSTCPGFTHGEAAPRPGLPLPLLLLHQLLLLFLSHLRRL
Experimental: a) Measurement of Acetylcholinesterase Inhibitory Activity
Acetylcholinesterase inhibitory activity of Example compounds was measured using human erythrocyte-derived acetylcholinesterase by an acetylthiocholine method (Ellman method).
Human erythrocyte-drived acetylcholinesterase (Sigma) was dissolved in distilled water to the concentration of 0.2 IU/mL to obtain an enzyme specimen. 20 μL of a drug solution, 30 μL of 80 mM Tris-HCL (pH 7.4), 50 μL of an enzyme specimen and 50 μL of 5 mM 5,5-dithio-bis (2-nitrobenzoic acid)(Sigma) were dispensed on a 96-well microplate, and this was shaken for 10 seconds. 50 μL of 4 mM acetylthiocholine iodide (Sigma) was added, this was shaken again and, immediately after, increase in absorbance at 414 nm was measured at 30 second intervals for 10 minutes. Enzyme activity was measured by the following equation: R=5.74×10^−7×ΔA (wherein R represents enzyme activity (mol), and ΔA represents increase in absorbance at 414 nm)
Regarding each compound, the experiment was repeated at least three times to obtain 50% inhibition concentration (IC50). According to the similar method to the above-mentioned, acetylcholinesterase inhibitory activity of distigmine which is a known acetylcholinesterase inhibitor was measured.

[2] = test system: Hartley male guinea pigs loaded with phenylephrine; assay: Pressure Flow Study using guinea pigs loaded with phenylephrine; assay type: in vivo, guinea pig; conditions: i.v., tamsulosin 0.01 mg/kg, Example 20 0.1 mg/kg, urethane-anesthetized, phenylephrine 3 μg/animal/min
Experimental: Hartley male guinea pigs (Slc) weighing 300 to 350 g was anesthetized with urethane (1.2 g/kg, i.p.), and a median was incised to expose bladder. Two polyethylene tubes were inserted into bladder, and one of them was used for injecting a physiological saline and the other was used for measuring a bladder internal pressure. A cannulae was inserted into a left femoral vein, and phenylephrine was continuously administered intravenously at 3 μg/animal/min until the completion of experiment. A physiological saline was injected into bladder at a rate of 0.3 mL/min, and injection was stopped when urination was confirmed. The urinated urine weight was measured with an electron balance (HX-400, A & D) at real time. Analogue data of bladder internal pressure and urine weight were inputted into an AD transducer (MP-100, BIOPAC Systems), and digital signals were analyzed with exclusive analyzing software (AcqKnowledge 3.5.3, BIOPAC Systems). The sampling rate of data was 10 Hz, and data of urination amount and urine flow rate were subjected to a lowcut filter at 0.5 Hz in order to remove noises. The value of urine weight was differentiated to calculate urine flow rate (Q), and maximum urine flow rate (Qmax) at urination and bladder internal pressure (Pves (Qmax)) at maximum urine flow were calculated. The urination weight 1 g was converted into 1 mL to calculate the urination amount, and divided by bladder volume to obtain voiding efficiency (Voiding Efficiency). Example compound was dissolved in DMSO, and the solution was intravenously administered at 0.5 mL/kg. 10 minutes after administration of test compound, urinary reflection was recorded again, and change in urine flow rate (ΔQmax), and change in bladder internal pressure (ΔPves(Qmax)) and voiding efficiency were assessed. The change in urine flow rate (ΔQmax) and change in bladder internal pressure (ΔPves. (Qmax)) were an amount of change (Δ value) obtained by subtracting each value before administration of test compound from each value after administration, and voiding efficiency was assessed by a relative value (% of pre-value) of after administration of test compound relative to before administration. Tamsulosin which is a known α1 receptor antagonist was measured similarly. A significance diffenence was tested by a Dunnett test by comparing with each value of a vehicle (DMSO)-administered group.

[3] = 10 minutes after administration minus before

With `COc1ccccc1CCNCCCCCC(=O)c1cc2c3c(c1)CCN3C(=O)CC2.Cl` [Example 20, 8-(6-[[2-(2-Methoxyphenyl)ethyl]amino]hexanoyl]-1,2,5,6-tetrahydro-4H-pyrrolo[3,2,1-ij]quinolin-4-one hydrochloride] the IC50 [1] was 179 nM, the “change in bladder internal pressure (ΔPves(Qmax))” value [2, 3] was −1.73 ± 1.54 cmH2O and the “change in maximum urine flow rate (ΔQmax)” value [2, 3] was 0.060 ± 0.016 mL/s. The “voiding efficiency (% of pre-value)” value ([2]; after administration relative to before) was 150.1 ± 20.1 %.
